This is an account of results in PubChem BioAssay AID492959 (The Scripps Research Institute Molecular Screening Center, 2010).

Calls of active or inactive are those of the source.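 How the source made its calls: active means IC50 of 10 µM or lower; inactive means IC50 above 10 µM.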

The IC50 is the concentration at which inhibition is half-maximal.

The assay deals with E. coli AddAB+ with T4 gene 2 phage, OD growth. The assay can be described thus: AddAB complex inhibitors, phage-infection growth assay, dose response, absorbance, E. coli, T4 phage (AID 492959).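 Further: growth read as OD600 after 18 h at 37 °C; AddAB inhibitors let the phage kill the cells so OD falls.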 The conditions noted are these: AddAB enzyme is from H. pylori; T4 phage with nonsense-mutated gene 2.
Take `CCCC(=O)NC(c1ccc2c(c1)OCO2)c1cc(Cl)c2cccnc2c1O` (stereo not drawn): the IC50 was > 119 µM (inactive).

Take `CCNc1c([N+](=O)[O-])c(=O)oc2ccccc12`: the IC50 is 51.6 µM (inactive). On to `COc1ccccc1/C=C1\SC(=S)N(CCC(=O)NNC(=O)c2ccccc2O)C1=O`, for which the IC50 is > 119 µM (inactive).

With `Cc1onc(-c2ccccc2)c1C(=O)NC(=S)NNC(=O)c1ccccc1O`, the IC50 is > 119 µM (inactive). Consider `Oc1cccc(C(Nc2nccs2)c2ccc3cccnc3c2O)c1` (stereo not drawn), for which the IC50 is > 119 µM (inactive). In the case of `Oc1cccc(/C=N/Nc2ccc(Cl)nn2)c1O`, the IC50 is > 119 µM (inactive). As to `CCCCC(=O)NC(c1ccccc1)c1ccc2cccnc2c1O` (stereo not drawn), the IC50 was > 118 µM (inactive). To `Oc1ccccc1N=Nc1nc(-c2ccccc2)c(-c2ccccc2)[nH]1` belongs > 119 µM (inactive). Regarding `COc1ccccc1NC(=O)NNC(=O)c1cc2ccccc2cc1O`, the IC50 is > 119 µM (inactive). To `Oc1ccc(N=Nc2ccc3c(c2)OCCO3)c2ncccc12` belongs > 119 µM (inactive); to `CCC(=O)NC(c1ccc(Cl)cc1Cl)c1ccc2cccnc2c1O` (stereo not drawn), > 119 µM (inactive); to `COc1ccc2[nH]c3c(c2c1)CCNC3c1ccc([N+](=O)[O-])o1` (stereo not drawn), 116 µM (inactive). For `Cc1ccc2nc(/C(C#N)=C\c3ccc([N+](=O)[O-])o3)[nH]c2c1`, the IC50 is 4.86 µM. With `c1ccc(-c2nnc(-c3ccccn3)nc2NC2CCCCC2)cc1`, the IC50 is 92 µM (inactive). Under `CC(=O)Oc1cc2cccc(OC(C)=O)c(=O)c2c(OC(C)=O)c1OC(C)=O` stands > 119 µM (inactive); under `Cc1onc(-c2ccccc2)c1C(=O)NC(=S)NNC(=O)c1ccc(O)cc1O`, > 39.5 µM (inactive); under `CCOC(=O)c1cn(C2CC2)c2c(F)c(NCCCN(C)C)c(F)cc2c1=O`, 68.1 µM (inactive). To `O=C1CCC(=O)N(O)CCCCCNC(=O)CCC(=O)N(O)CCCCNC(=O)CCC(=O)N(O)CCCCCN1` belongs > 119 µM (inactive).

With `O=C(/C=C1\NC2(CCCC2)Cc2ccccc21)C(=O)N/N=C/c1ccccc1O`, the IC50 is > 119 µM (inactive). In the case of `C/C(=N\N=C1\NC(=O)C(CC(=O)O)S1)c1ccccn1` (stereo not drawn), the IC50 was > 118 µM (inactive).

Turning to `CCCC(=O)NC(c1ccc(Cl)cc1)c1ccc2cccnc2c1O` (stereo not drawn), the IC50 is > 119 µM (inactive). With `O=C(O)c1cccc(NC(=S)N/N=C/c2ccccn2)c1`, the IC50 was > 119 µM (inactive). To `Cc1cc2c(c(=O)o1)C(c1ccc([N+](=O)[O-])o1)C(C#N)=C(N)O2` (stereo not drawn) belongs 29.6 µM (inactive); to `O=C(CC(O)(C(F)(F)F)C(F)(F)F)Nc1ccc(Cl)c(Cl)c1`, 39.1 µM (inactive); to `O=C(Nc1ccc2oc(-c3ccncc3)nc2c1)c1ccc([N+](=O)[O-])o1`, > 119 µM (inactive). Consider `CC(=O)NC(c1ccc2ccccc2c1)c1ccc2cccnc2c1O` (stereo not drawn), for which the IC50 was > 118 µM (inactive). For `O=C(NC(NC(=S)Nc1ccc(Cl)c(Cl)c1)C(Cl)(Cl)Cl)c1ccco1` (stereo not drawn), the IC50 was > 119 µM (inactive). On to `COc1ccc(OCC(O)CNc2ccc(Br)cc2)cc1` (stereo not drawn), for which the IC50 was > 119 µM (inactive). Under `O=C(COC(=O)c1ccc([N+](=O)[O-])s1)c1ccc[nH]1` stands > 119 µM (inactive); under `O=C(CCN1CCN(c2ccccc2)CC1)N/N=C/c1ccc([N+](=O)[O-])o1`, 29.3 µM (inactive); under `COc1ccc(N/N=C(/N=Nc2nc(C)cc(=O)[nH]2)c2ccccc2)cc1`, > 119 µM (inactive). Under `O=C(CNc1cccc2ccccc12)N/N=C/c1ccc([N+](=O)[O-])o1` stands 70.5 µM (inactive); under `O=[N+]([O-])c1ccc(N/N=C/c2ccc[nH]2)cc1`, > 119 µM (inactive); under `Oc1c(C(Nc2nc3ccccc3s2)c2ccco2)ccc2cccnc12` (stereo not drawn), > 119 µM (inactive). To `Nc1c(Cl)ncnc1N/N=C/c1ccc2ccccc2n1` belongs > 119 µM (inactive). For `Cc1ccc(NC(=O)Cn2cnc3ccccc32)cc1C`, the IC50 is > 119 µM (inactive). In the case of `O=C1c2ccccc2C(=O)c2[nH]c(=O)[nH]c21`, the IC50 was > 119 µM (inactive). Consider `O=C(N/N=C/c1ccc(O)cc1O)c1ccc(CN2C(=O)c3cccc4cccc2c34)cc1`, for which the IC50 is > 119 µM (inactive). To `Oc1ccc2ccccc2c1/C=N/Nc1nnc(-c2ncc[nH]2)c2ccccc12` belongs > 119 µM (inactive); to `Oc1c(N=Nc2ccccn2)ccc2ccccc12`, > 119 µM (inactive); to `O=C(Nc1ccc([N+](=O)[O-])cc1)Nc1ccc(OC(F)F)c(Cl)c1`, > 119 µM (inactive). To `Cc1cc([N+](=O)[O-])ccc1-c1ccc(C2Nc3ccccc3C(=O)N2O)o1` (stereo not drawn) belongs > 119 µM (inactive); to `COc1ccc2nc(NC(=O)CCNC(=O)c3ccco3)sc2c1`, > 119 µM (inactive).
